Legend:
[1] = Cytotoxicity assay (CellTiter-Glo); assay type: cell-based; conditions: human, toxicity to the cells, 72 h incubation, CellTiter-Glo cell viability
Description: (§1) Further to the above Examples, representative compounds, prepared according to the examples were tested for potency in an HCV replicon assay (Genotype 1b) for activity against the virus (EC50) and toxicity to the cells (CC50).
(§2) A luciferase-reporter genotype 1b subgenomic replicon cell line, and a genotype 1a full-length replicon cell line were obtained from Apath, LLC, Brooklyn, N.Y.: All cell lines were passaged twice a week by splitting 4 or 6 fold. Cells were maintained in DMEM-high glucose medium (HyClone, Logan, Utah) supplemented with 9% FBS (HyClone), 2 mM glutamine (Invitrogen, Carlsbad, Calif.), 100 U/mL PenStrep (Invitrogen). Media also contained 0.25 mg/mL of the antibiotic G-418 to maintain stable expression of the replicon (Invitrogen). Incubation was performed at 37° C. in 5% CO2 atmosphere. Replicon cell lines were used until they accumulated 15-to-18 passages, after which cells were restarted from the frozen stock. Seeding cell counts were routinely determined using an automatic Cedex HiRes cell counter (Flownomics Analytical Instruments, Madison, Wis.) or manually using INCYTO C—Chip™ Disposable Hemacytometers (Fisher Scientific, Pittsburgh, Pa.).
The cell cytotoxicity assay data was obtained as described below:
Cells were seeded into 96-well plates at a density of 2×10^4 cells per well. 24 h after cell plating, 11 serial 2× compound dilutions, starting with 100 μM, were applied to the testing plates (3 repeats per compound dilution). Each testing plate was run with a “no-compound” control. Incubation with compounds was continued at 37° C. in a CO2 incubator for 72 h. To determine cell viability, the CellTiter-Glo® assay (Promega, Madison, Wis.) was performed according to the manufacturer's protocol. The compound concentration resulting in 50% luminescent signal was reported as the CC50 concentration.

[2] = test system: HCV replicon (Genotype 1b); assay: Luciferase genotype 1b replicon potency assay; assay type: cell-based; conditions: Hepatitis C virus, Huh-7; luciferase-reporter genotype 1b subgenomic replicon cell line (Huh7); Renilla luciferase reporter activity
Description: as §1
Huh7 Replicon Cell Lines and Cell Culture Conditions:
as §2
The anti-HCV assays were done accordingly:
Luciferase Genotype 1b Replicon Potency Assay.
Replicon cells were seeded into white 96-well plates (Nunc/VWR) at a density of 2×10^4 cells/well in medium without G-418. A Stacker Multidrop Liquid Dispenser (MTX Lab Systems, Vienna, Va.) was employed to ensure uniform and fast cell seeding into multiple plates. 18-24 h after cell plating, inhibitors were added and cells were incubated for additional 24, 48, or 72 h (as indicated). Compounds were tested in triplicates and quadruplicates at 3× or 4× serial dilutions over a range of 0.0001-to-10 μM concentrations. HCV replication was monitored by Renilla luciferase reporter activity assay using Renilla luciferase reporter (Promega, Madison, Wis.) and a Veritas Luminometer (Turner Biosystems, Sunnyvale, Calif.). 50% and 90% inhibitory concentration (IC50 and IC90) values were calculated as the concentration of compound that results correspondingly in 50% and 90% decreases in the reporter expression as compared to untreated cells. The values were determined by non-linear regression (four-parameter sigmoidal curve fitting) analysis.

[3] = Huh7 HCV genotype 1b replicon cells

Row | SMILES | CC50 at 72 h [1] [µM] | IC50 [2] [µM] | CC50 at 72 h [1, 3] [µM]
1 | COc1nc(N)nc2c1nc(Br)n2[C@@H]1O[C@H](COP(=O)(N[C@@H](C)C(=O)OCC(C)(C)C)Oc2cccc3ccccc23)[C@@H](O)[C@@]1(C)O (stereo partly drawn) [Example 13, (2S)-Neopentyl 2-((((2R,3R,4R,5R)-5-(2-Amino-8-bromo-6-methoxy-9H-purin-9-yl)-3,4-dihydroxy-4-methyltetrahydrofuran-2-yl)methoxy)(naphthalen-1-yloxy)phosphorylamino)propanoate] | 60 | 15 | 
2 | COc1nc(N)nc2c1nc(Cl)n2[C@@H]1O[C@H](COP(=O)(N[C@@H](C)C(=O)OCC(C)(C)C)Oc2cccc3ccccc23)[C@@H](O)[C@@]1(C)O (stereo partly drawn) [Example 14, (2S)-Neopentyl 2-((((2R,3R,4R,5R)-5-(2-Amino-8-chloro-6-methoxy-9H-purin-9-yl)-3,4-dihydroxy-4-methyltetrahydrofuran-2-yl)methoxy)(naphthalen-1-yloxy)phosphorylamino)propanoate] | 60 | > 10 | 
3 | COc1nc(N)nc2c1nc(I)n2[C@@H]1O[C@H](COP(=O)(N[C@@H](C)C(=O)OC2CCC2)Oc2cccc3ccccc23)[C@@H](O)[C@@]1(C)O (stereo partly drawn) [Example 15, (2S)-Cyclobutyl 2-((((2R,3R,4R,5R)-5-(2-Amino-8-iodo-6-methoxy-9H-purin-9-yl)-3,4-dihydroxy-4-methyltetrahydrofuran-2-yl)methoxy)(naphthalen-1-yloxy)phosphorylamino)propanoate] | 6.8 | 0.01 | 
4 | COc1nc(N)nc2c1nc(I)n2[C@@H]1O[C@H](COP(=O)(N[C@@H](C)C(=O)OC2CCCC2)Oc2cccc3ccccc23)[C@@H](O)[C@@]1(C)O (stereo partly drawn) [Example 16, (2S)-Cyclopentyl 2-((((2R,3R,4R,5R)-5-(2-Amino-8-iodo-6-methoxy-9H-purin-9-yl)-3,4-dihydroxy-4-methyltetrahydrofuran-2-yl)methoxy)(naphthalen-1-yloxy)phosphorylamino)propanoate] | 13 | 0.012 | 
5 | COc1nc(N)nc2c1nc(I)n2[C@@H]1O[C@H](COP(=O)(N[C@@H](C)C(=O)OC2CCCCC2)Oc2cccc3ccccc23)[C@@H](O)[C@@]1(C)O (stereo partly drawn) [Example 17, (2S)-Cyclohexyl 2-((((2R,3R,4R,5R)-5-(2-Amino-8-iodo-6-methoxy-9H-purin-9-yl)-3,4-dihydroxy-4-methyltetrahydrofuran-2-yl)methoxy)(naphthalen-1-yloxy)phosphorylamino)propanoate] | 11 | 0.016 | 
6 | COc1nc(N)nc2c1nc(I)n2[C@@H]1O[C@H](COP(=O)(N[C@@H](C)C(=O)OC2CCOCC2)Oc2cccc3ccccc23)[C@@H](O)[C@@]1(C)O (stereo partly drawn) [Example 18, (2S)-Tetrahydro-2H-pyran-4-yl 2-((((2R,3R,4R,5R)-5-(2-Amino-8-iodo-6-methoxy-9H-purin-9-yl)-3,4-dihydroxy-4-methyltetrahydrofuran-2-yl)methoxy)(naphthalen-1-yloxy)phosphorylamino)propanoate] | 26 | 0.018 | 
7 | COc1nc(N)nc2c1nc(I)n2[C@@H]1O[C@H](COP(=O)(N[C@@H](CCSC)C(=O)OCc2ccccc2)Oc2cccc3ccccc23)[C@@H](O)[C@@]1(C)O (stereo partly drawn) [Example 19, (2S)-Benzyl 2-((((2R,3R,4R,5R)-5-(2-Amino-8-iodo-6-methoxy-9H-purin-9-yl)-3,4-dihydroxy-4-methyltetrahydrofuran-2-yl)methoxy)(naphthalen-1-yloxy)phosphorylamino)-4-(methylthio)butanoate] | 29 | 0.034 | 
8 | COc1nc(N)nc2c1nc(I)n2[C@@H]1O[C@H](COP(=O)(N[C@H](C(=O)OCc2ccccc2)C(C)C)Oc2cccc3ccccc23)[C@@H](O)[C@@]1(C)O (stereo partly drawn) [Example 20, (2S)-Benzyl 2-((((2R,3R,4R,5R)-5-(2-Amino-8-iodo-6-methoxy-9H-purin-9-yl)-3,4-dihydroxy-4-methyltetrahydrofuran-2-yl)methoxy)(naphthalen-1-yloxy)phosphorylamino)-3-methylbutanoate] | 25 | 0.14 | 
9 | COc1nc(N)nc2c1nc(I)n2[C@@H]1O[C@H](COP(=O)(N[C@@H](C)C(=O)OCc2ccccc2)N[C@@H](C)C(=O)OCc2ccccc2)[C@@H](O)[C@@]1(C)O [Example 21, (2S,2′S)-Benzyl 2,2′-((((2R,3R,4R,5R)-5-(2-Amino-8-iodo-6-methoxy-9H-purin-9-yl)-3,4-dihydroxy-4-methyltetrahydrofuran-2-yl)methoxy)phosphoryl)bis(azanediyl)dipropanoate] |  | 0.046 | 22
10 | COc1nc(N)nc2c1nc(I)n2[C@@H]1O[C@H](COP(=O)(N[C@@H](C)C(=O)OCCC(C)(C)C)N[C@@H](C)C(=O)OCCC(C)(C)C)[C@@H](O)[C@@]1(C)O [Example 22, (2S,2′S)-Bis(3,3-Dimethylbutyl) 2,2′-((((2R,3R,4R,5R)-5-(2-Amino-8-iodo-6-methoxy-9H-purin-9-yl)-3,4-dihydroxy-4-methyltetrahydrofuran-2-yl)methoxy)phosphoryl)bis(azanediyl)dipropanoate] |  | 0.072 | 11
11 | COc1nc(N)nc2c1nc(I)n2[C@@H]1O[C@H](COP(=O)(N[C@@H](C)C(=O)OCC(C)(C)C)N[C@@H](C)C(=O)OCC(C)(C)C)[C@@H](O)[C@@]1(C)O [Example 23, (2S,2′S)-Neopentyl 2,2′-((((2R,3R,4R,5R)-5-(2-Amino-8-iodo-6-methoxy-9H-purin-9-yl)-3,4-dihydroxy-4-methyltetrahydrofuran-2-yl)methoxy)phosphoryl)bis(azanediyl)dipropanoate] |  | 0.11 | 53
12 | COc1nc(N)nc2c1nc(Br)n2[C@@H]1O[C@H](COP(=O)(N[C@@H](C)C(=O)OCC(C)(C)C)N[C@@H](C)C(=O)OCC(C)(C)C)[C@@H](O)[C@@]1(C)O [Example 24, (2S,2′S)-Neopentyl 2,2′-((((2R,3R,4R,5R)-5-(2-Amino-8-bromo-6-methoxy-9H-purin-9-yl)-3,4-dihydroxy-4-methyltetrahydrofuran-2-yl)methoxy)phosphoryl)bis(azanediyl)dipropanoate] |  | > 40 | > 100
13 | COc1nc(N)nc2c1nc(Cl)n2[C@@H]1O[C@H](COP(=O)(N[C@@H](C)C(=O)OCC(C)(C)C)N[C@@H](C)C(=O)OCC(C)(C)C)[C@@H](O)[C@@]1(C)O [Example 25, (2S,2′S)-Neopentyl 2,2′-((((2R,3R,4R,5R)-5-(2-Amino-8-chloro-6-methoxy-9H-purin-9-yl)-3,4-dihydroxy-4-methyltetrahydrofuran-2-yl)methoxy)phosphoryl)bis(azanediyl)dipropanoate] |  | 10 | > 100
14 | COc1nc(N)nc2c1nc(I)n2[C@@H]1O[C@H](COP(=O)(N[C@@H](C)C(=O)OC2CCCCC2)N[C@@H](C)C(=O)OC2CCCCC2)[C@@H](O)[C@@]1(C)O [Example 26, (2S,2′S)-Dicyclohexyl 2,2′-((((2R,3R,4R,5R)-5-(2-Amino-8-iodo-6-methoxy-9H-purin-9-yl)-3,4-dihydroxy-4-methyltetrahydrofuran-2-yl)methoxy)phosphoryl)bis(azanediyl)dipropanoate] |  | 0.13 | 54

Source: patent US9351989B2, “Substituted purine nucleosides, phosphoroamidate and phosphorodiamidate derivatives for treatment of viral infections” (INHIBITEX, INC., priority 2010, dated 2016)
